The source of these data is ChEMBL document CHEMBL3351358, “LPM7 Inhibitors May Potentially Treat Autoimmune Diseases” (ACS Med Chem Lett, 2014).

As a reminder, the IC50 is the midpoint of a concentration-inhibition curve. The low end stands for higher potency, the high end for lower potency. By EC50 is commonly meant the concentration needed to bring the measured effect to its halfway point. A high value points to a need for much substance.

The nature of assay [1]: Inhibition of LPM7 beta 5i subunit in human Ramos cells using ac-(anw)2-r110 substrate by fluorogenic assay. The format is cell-based.
A short description of assay [2]: Inhibition of LPM7 beta 5c subunit in human Ramos cells using rh110-(wla)2 substrate by fluorogenic assay. The format is cell-based.
A short description of assay [3]: Inhibition of LPM7 beta 1i subunit in human Ramos cells using rh110-(pal)2 substrate by fluorogenic assay. The format is cell-based.
A short description of assay [4]: Inhibition of LPM7 beta 1c subunit in human Ramos cells using rh110-(Ile)2 substrate by fluorogenic assay. The format is cell-based.
Assay [5] can be described thus: Inhibition of LPM7 in CpG type A-stimulated human PBMCs by CXCL10/IP10 detection based PBMC IP-10 assay.

`COc1ccc(C[C@H](NC(=O)[C@H](C)NC(=O)C2Cc3ccccc3C2)C(=O)N[C@@H](Cc2ccccc2)C(=O)C(=O)NCc2ccccc2)cc1`: the IC50 amounted to 3 nM in assay [1], 55 nM in assay [2], 234 nM in assay [3] and 20000 nM in assay [4]. In addition, in assay [5], it took 695 nM to reach a half-maximal effect (EC50).
Regarding `CCCC[C@H](NC(=O)[C@H](Cc1c[nH]c2ccccc12)NC(=O)[C@H](C)NC(=O)C1=C(C)c2ccccc2C1)C(=O)C(=O)NCc1ccccc1`, the IC50 in assay [1] is 18 nM; in assay [2], 560 nM; in assay [3], 142 nM; in assay [4], 3340 nM. The same compound came in with an EC50 in assay [5] of 1220 nM.
Regarding `C[C@H](NC(=O)OCc1ccccc1)C(=O)N[C@@H](CC(F)(F)F)C(=O)N[C@@H](Cc1ccccc1)C(=O)C(=O)NCc1ccccc1`, the IC50 turned out to be 524 nM in assay [1], 6160 nM in assay [2], 2730 nM in assay [3] and 20000 nM in assay [4]. In assay [5], this compound displayed an EC50 of 5030 nM.
On to `C[C@H](NC(=O)C1Cc2ccccc2C1)C(=O)N[C@@H](CCc1ccccc1)C(=O)N[C@@H](Cc1ccccc1)C(=O)C(=O)NCc1ccccc1`, for which the IC50 in assay [1] was 4 nM; in assay [2], 14 nM; in assay [3], 968 nM; in assay [4] it was 18100 nM. This compound registered an EC50 in assay [5] of 379 nM.
